Patent US11634434B2, “Bifunctional alpha-synuclein binding agents and uses thereof” (University of Saskatchewan, priority 2016, dated 2023)
pKd: −log10 of the molar value. Several values for one entry are separate records, joined by “and”; a condition that tells them apart may be missing. Identical values can stand only once. Like-named read-outs stand apart in the source and are kept apart here.

Columns and labels:
[1] = system: yeast strain 2AS (2 copies of AS-GFP gene); type: cell-based
Protocol: (§1) Third, the drugs were assayed in a yeast model of Parkinson's Disease, which expresses an alpha-synuclein-Green Fluorescent Protein (AS-GFP) construct under the control of a galactose promoter.
Construction of the 1AS and 2AS strains has been described in detail previously.^55 Strains were grown in YPD supplemented with 30 μg/ml of all amino acids. The OD600 was adjusted to 0.05 in drop-out media (no uracil) at 30° C. Drugs were dissolved in methanol at 0.01 micromolar, 0.1 micromolar, 1 micromolar or 10 micromolar followed by addition of 100 micromolar or 5 mM galactose to a final volume of 10 mL.

[2] = system: alpha-synuclein-GFP aggregation in yeast strain 2AS; type: cell-based; settings: 1 micromolar compound, 5 mM galactose; for AS-GFP foci / fluorescence pattern: up to 12 hours
Protocol: as §1
For Analysis of AS-GFP distribution, the 2AS strain was grown overnight in drop-out media. After normalization of culture density, galactose was administered to a final concentration of 5 mM. […] For the yeast recovery assay, yeast cells were obtained after 6 hours induction with 5 mM galactose concentration, washed in galactose free media and the compounds were added to a final concentration of 1 micromolar in a 2 mL reaction mixture. The culture was incubated at 30° C. for 3, 6, and 9 hour intervals. Images were obtained at each interval using an Olympus Infinity (BX51) fluorescence microscope at 100× magnification.

[3] = system: male Sprague-Dawley rats with increased alpha-synuclein expression; test: Forced swim test in ASIA-treated rats; type: in vivo, rat; settings: ASIA + compound 3 mg/kg
Protocol: male Sprague-Dawley rats are used (200 g-300 g). All animals are handled ethically following approved protocols. For the first round of studies, rats are divided into five treatment groups:
Rats are subjected to 7-day chronic injection of 3 mg/kg of each test compound, and a forced swim test is conducted after the seventh day to measure motor deficits. […] For a second round of studies, rats are divided into four treatment groups, and the same experiments were repeated:
The forced swim test is carried out by immersing the rat in water that is sufficiently deep to force the rat to swim. The forced swim test is scored based on the following criteria:
Vigor and success are measures of motor function. Immobility is thought to be a measure of depression.^59 Based on videos of the forced swim test, the amount of time that each rat was motionless was calculated as a form of scoring depression for each treatment. Statistical analysis was carried out using an ordinary one-way ANOVA and Tukey multiple comparisons test.

alpha-synuclein [4] = molecular target: T1, alpha-synuclein (Homo sapiens, UniProt P37840); test: Nanopore analysis of alpha-synuclein (blockade current histograms); type: binding; settings: for nanopore profile of additional bifunctional molecules: FIGS. 9A-9D; for binding to alpha-synuclein: method not stated for these compounds; for nanopore profile (bumping peak / binding): 1 micromolar alpha-synuclein, 20 micromolar compound, FIG. 3
Protocol: The bifunctional molecules were characterized by four different methods. […] If the compound causes a more compact conformation, then the alpha-synuclein can no longer translocate and it simply bumps into the pore giving rise to a very small change in the blockade current.^44-46
(§2) Nanopore analysis and isothermal titration calorimetry were performed as described previously.^21,54

alpha-synuclein [5] = molecular target: T1, alpha-synuclein; test: Isothermal titration calorimetry (ITC) binding to alpha-synuclein; settings: for # Binding sites: Table 2; for Bind to N and C?: binds to both N and C portions of alpha-synuclein; for pKd: Ka; as to Bind to N and C?: key: Y indicates yes; N indicates no
Protocol: as §2

WT yeast = test: Yeast growth curves (OD600), toxicity of drugs on WT yeast; type: cell-based; parameters: effect on growth of WT yeast: dose or concentration left out as unconfirmed; settings: for effect on growth of WT yeast: no alpha-synuclein
[6] = 1 micromolar compound + 100 micromolar galactose
[7] = ITC in 1.0M KCl, bifunctional molecules (or monomers) per alpha-synuclein molecule, best fit
[8] = 1 micromolar compound + 5 mM galactose

Structure (SMILES)	nanopore profile of additional bifunctional molecules (alpha-synuclein [4])	# Binding sites (alpha-synuclein [5])	Ka (alpha-synuclein [5]; Table 2, ITC) [M⁻¹]	Bind to N and C? (alpha-synuclein [5])	also measured
NC1CCc2ccccc21 (racemic) [(R,S)-1-aminoindan, reference compound]					growth of 2AS yeast [1, 6]: rate of growth which is similar to that shown by the WT strain; formation of foci delayed until (time after induction) [2]: 9 h; immobility in forced swim test [3]: partially reversed; success in forced swim test ([3]; last three minutes of the test): some improvement; vigor in forced swim test ([3]; last three minutes of the test): some improvement
CN1CCC[C@H]1c1cccnc1 (racemic) [(R,S)-nicotine, reference compound]					growth of 2AS yeast [1, 6]: rate of growth which is similar to that shown by the WT strain; formation of foci delayed until (time after induction) [2]: 9 h
Cn1c(=O)c2c(ncn2CCN2CCCC2c2cccnc2)n(C)c1=O (racemic) [Compound C7-2-N]	bumping peaks, but have a shifted translocation peak visible as well	1	50000	Y	
Cn1c(=O)c2c(ncn2CCCCN2CCCC2c2cccnc2)n(C)c1=O (racemic) [Compound C7-4-N]	bumping peaks, but have a shifted translocation peak visible as well	1	3e+06	Y	
Cn1c(=O)c2c(ncn2CCCCCCN2CCCC2c2cccnc2)n(C)c1=O (racemic) [Compound C7-6-N]		1	5e+06	Y	Ka (alpha-synuclein [5]; ITC in 1.0M KCl): 5.1e+06 M⁻¹; # of Binding sites (alpha-synuclein [5]; [7]): 1; lag before growth rescue / reaching the growth plateau [1, 8]: about 6 hours
Cn1c(=O)c2c(ncn2CCCCCCCCN2CCCC2c2cccnc2)n(C)c1=O (racemic) [Compound C7-8-N]	bumping peaks, but have a shifted translocation peak visible as well	1	4e+06	Y	
Cn1c(=O)c2c(nc(CCCCCCCCNC3CCc4ccccc43)n2C)n(C)c1=O (racemic) [Compound C8-8-I]					binding to alpha-synuclein (alpha-synuclein [4]): bind to alpha-synuclein
Cn1c(=O)c2c(nc(CCCCCCCCN3CCCC3c3cccnc3)n2C)n(C)c1=O (racemic) [Compound C8-8-N]					binding to alpha-synuclein (alpha-synuclein [4]): bind to alpha-synuclein
NC1CCc2c(F)cccc21 (stereo not shown) [4-Fluoro-indan-1-yl-amine, reference compound]		0.5		Y	Kd (alpha-synuclein [5]; Table 2, ITC, read-out: Ka (converted)): 333 nM
Cn1c(=O)c2c(ncn2CCn2cnc3c2c(=O)n(C)c(=O)n3C)n(C)c1=O [Compound C7-2-C7]	significant bumping peaks	1	30000	Y	
Cn1c(=O)c2c(ncn2CCNC2CCc3ccccc32)n(C)c1=O (stereo not shown) [Compound C7-2-I]	significant bumping peaks	1	90000	Y	
Cn1c(=O)c2c(ncn2CCCCn2cnc3c2c(=O)n(C)c(=O)n3C)n(C)c1=O [Compound C7-4-C7]	significant bumping peaks	0.5	1e+07	Y	
Cn1c(=O)c2c(ncn2CCCCNC2CCc3ccccc32)n(C)c1=O (stereo not shown) [Compound C7-4-I]	bumping peaks, but have a shifted translocation peak visible as well	1	5e+06	Y	
Cn1c(=O)c2c(ncn2CCCCCCn2cnc3c2c(=O)n(C)c(=O)n3C)n(C)c1=O [Compound C7-6-C7]		2	700000	Y	nanopore profile (bumping peak / binding) (alpha-synuclein [4]): predominantly bumping peaks; Ka (alpha-synuclein [5]; ITC in 1.0M KCl): 720000 M⁻¹; # of Binding sites (alpha-synuclein [5]; [7]): 2; growth of 2AS yeast [1, 8]: marginal growth rescue
Cn1c(=O)c2c(ncn2CCCCCCNC2CCc3ccccc32)n(C)c1=O (stereo not shown) [Compound C7-6-I]		1	2e+06	Y	Ka (alpha-synuclein [5]; ITC in 1.0M KCl): 2.6e+06 M⁻¹; # of Binding sites (alpha-synuclein [5]; [7]): 1; growth of 2AS yeast [1, 8]: moderate growth; lag before growth rescue / reaching the growth plateau [1, 8]: about 6 hours; AS-GFP foci / fluorescence pattern [2]: more diffuse area of fluorescence
Cn1c(=O)c2c(ncn2CCCCCCCCn2cnc3c2c(=O)n(C)c(=O)n3C)n(C)c1=O [Compound C7-8-C7]	significant bumping peaks	0.5	400000	Y	
Cn1c(=O)c2c(ncn2CCCCCCCCNC2CCc3ccccc32)n(C)c1=O (stereo not shown) [Compound C7-8-I]	bumping peaks, but have a shifted translocation peak visible as well	0.5	2e+07	Y	
Cn1c(=O)c2c(nc(CCc3nc4c(c(=O)n(C)c(=O)n4C)n3C)n2C)n(C)c1=O [Compound C8-2-C8]	significant bumping peaks	1	900000	Y	
Cn1c(=O)c2c(nc(CCCCCCc3nc4c(c(=O)n(C)c(=O)n4C)n3C)n2C)n(C)c1=O [Compound C8-6-C8]		0.25	2e+08	Y	nanopore profile (bumping peak / binding) (alpha-synuclein [4]): predominantly bumping peaks; increase of Ka for a 10-fold decrease in ionic strength (alpha-synuclein [5]; 100 mM KCl versus 1.0M KCl): does not increase; # of Binding sites (alpha-synuclein [5]; ITC in 100 mM KCl): 0.25; Ka (alpha-synuclein [5]; ITC in 100 mM KCl): 1.8e+08 M⁻¹; Ka (alpha-synuclein [5]; ITC in 1.0M KCl): 2e+08 M⁻¹ and 280000 M⁻¹; # of Binding sites (alpha-synuclein [5]; [7]): 0.25; toxicity on WT yeast (WT yeast; 100 micromolar compound): toxic; lag before growth rescue / reaching the growth plateau [1, 8]: about 6 hours
CN(CCCCCCCc1nc2c(c(=O)n(C)c(=O)n2C)n1C)C(=N)NC(=N)N.Cl [Compound C8-7-M]	significant bumping peaks	2	640000	Y	
CN1CCCC1c1cccnc1 (stereo not shown) [Nicotine, nicotine, reference compound]		1		Y	pKd (alpha-synuclein [5]): 6.00
N[C@@H]1CCc2ccccc21 [R-Aminoindan, reference compound]		1	1e+06	Y	Ka (alpha-synuclein [5]; ITC in 1.0M KCl): 1e+06 M⁻¹; # of Binding sites (alpha-synuclein [5]; [7]): 1
CN1CCC[C@@H]1c1cccnc1 [R-Nicotine, reference compound]					# of Binding sites (alpha-synuclein [5]; [7]): 1; pKd (alpha-synuclein [5]): 6.15
N[C@H]1CCc2ccccc21 [S-Aminoindan, reference compound]		1	3e+06	Y	Ka (alpha-synuclein [5]; ITC in 1.0M KCl): 3.1e+06 M⁻¹; # of Binding sites (alpha-synuclein [5]; [7]): 1
CN1CCC[C@H]1c1cccnc1 [S-Nicotine, reference compound]					Ka (alpha-synuclein [5]; ITC in 1.0M KCl): 400000 M⁻¹; # of Binding sites (alpha-synuclein [5]; [7]): 1
CC(N)Cc1ccccc1 (stereo not shown) [amphetamine]					effect on growth of WT yeast (WT yeast): no evidence of toxicity; growth of 2AS yeast [1, 6]: significant reduction of growth; time at which complete filling of the cell with AS-GFP occurs [2]: 6 h; AS-GFP foci / fluorescence pattern [2]: larger foci appear at earlier times
C[n+]1ccc(-c2cc[n+](C)cc2)cc1 [paraquat, reference compound]					effect on growth of WT yeast (WT yeast): no evidence of toxicity; growth of 2AS yeast [1, 6]: significant reduction of growth
C=C(C)[C@H]1Cc2c(ccc3c2O[C@@H]2COc4cc(OC)c(OC)cc4[C@@H]2C3=O)O1 [rotenone, reference compound]					growth of 2AS yeast [1, 6]: significant reduction of growth
